From US20030096854A1, “Substituted tricyclics” (priority 2002, published 2003)

biological target: T1, recombinant human secreted phospholipase A2 (Homo sapiens, UniProt P14555); experiment: Chromogenic assay for inhibitors of recombinant human secreted phospholipase A2 (Assay Example 1); format: biochemical; details: compounds of formula 2; diheptanoyl thio-PC substrate, pH 7.5, absorbance at 405 nm
T1 sequence (P14555 21-144): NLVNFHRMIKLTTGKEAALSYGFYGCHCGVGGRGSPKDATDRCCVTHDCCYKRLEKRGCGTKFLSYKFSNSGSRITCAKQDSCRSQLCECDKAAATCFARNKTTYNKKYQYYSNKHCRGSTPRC
Description: The following chromogenic assay procedure was used to identify and evaluate inhibitors of recombinant human secreted phospholipase A2. The assay described herein has been adapted for high volume screening using 96 well microtiter plates. A general description of this assay method is found in the article, “Analysis of Human Synovial Fluid Phospholipase A2 on Short Chain Phosphatidylcholine-Mixed Micelles: Development of a Spectrophotometric Assay Suitable for a Microtiterplate Reader”, by Laure J. Reynolds, Lori L. Hughes, and Edward A Dennis, Analytical Biochemistry, 204, pp. 190-197, 1992 (the disclosure of which is incorporated herein by reference):
Bovine Serum Albumin (fatty acid free) (1 g/L)
(Sigma A-7030, product of Sigma Chemical Co. St. Louis Mo., USA) […]
pH 7.5 (adjust with NaOH)
Adjust pH to 4.5 with acetic acid
5,5′-dithiobis-2-nitrobenzoic acid
Racemic Diheptanoyl Thio—PC racemic 1,2-bis(heptanoylthio)-1,2-dideoxy-sn-glycero-3-phosphorylcholine TRITON X-100™ prepare at 6.249 mg/ml in reaction buffer to equal […]
TRITON X-100™ is a polyoxy ethylene non-ionic
A measured volume of racemic dipheptanoyl thio PC supplied in chloroform at a concentration of 100 mg/ml is taken to dryness and redissolved in 10 millimolar TRITON X-100™ nonionic detergent aqueous solution. Reaction Buffer is added to the solution, then DTNB to give the Reaction Mixture.
The reaction mixture thus obtained contains 1 mM diheptanoly thio-PC substrate, 0.29 mm Triton X-100™ detergent, and 0.12 mm DTMB in a buffered aqueous solution at pH 7.5.
1. Add 0.2 ml reaction mixture to all wells;
2. Add 10 ul test compound (or solvent blank) to appropriate wells, mix 20 seconds;
3. Add 50 nanograms of sPLA2 (10 microliters) to appropriate wells;
4. Incubate plate at 40° C. for 30 minutes;
5. Read absorbance of wells at 405 nanometers with an automatic plate reader.
All compounds were tested in triplicate. Typically, compounds were tested at a final concentration of 5 ug/ml. […] Lack of color development at 405 nanometers evidenced inhibition. Compounds initially found to be active were reassayed to confirm their activity and, if sufficiently active, IC50 values were determined. […] In all cases, % inhibition measured at 405 nanometers generated by enzyme reactions containing inhibitors relative to the uninhibited control reactions was determined. Each sample was titrated in triplicate and result values were averaged for plotting and calculation of IC50 values. IC50 were determined by plotting log concentration versus inhibition values in the range from 10-90% inhibition.

Point of comparison: `NC(=O)COc1cccc2c1c1c(C(N)=O)cccc1n2Cc1ccccc1` [Compound 2a, [[5-Carbamoyl-9-(phenylmethyl)carbazol-4-yl]oxy]acetamide], IC50 151 nM. Against it:
- CCNC(=O)COc1cccc2c1c1c(C(N)=O)cccc1n2Cc1ccccc1 [Compound 2b, [[5-Carbamoyl-9-(phenylmethyl)carbazol-4-yl]oxy]-N-(ethyl)acetamide] — 1.8-fold higher, 273 nM

same assay, conditions: compounds of formula 3; diheptanoyl thio-PC substrate, pH 7.5, absorbance at 405 nm

Point of comparison: `COC(=O)CNC(=O)COc1cccc2c1c1c(C(N)=O)cccc1n2Cc1ccccc1` [Compound 3a, N-[[[5-Carbamoyl-9-(phenylmethyl)carbazol-4-yl]oxy]acetyl]glycine methyl ester], IC50 383 nM. Against it:
- COC(=O)[C@H](CCSC)NC(=O)COc1cccc2c1c1c(C(N)=O)cccc1n2Cc1ccccc1 [Compound 3f, N-[[[5-Carbamoyl-9-(phenylmethyl)carbazol-4-yl]oxy]acetyl]-L-methionine Methyl Ester] — within 1.5-fold, 263 nM
- COC(=O)[C@H](CC(C)C)NC(=O)COc1cccc2c1c1c(C(N)=O)cccc1n2Cc1ccccc1 [Compound 3c, N-[[[5-Carbamoyl-9-(phenylmethyl)carbazol-4-yl]oxy]acetyl]-L-leucine Methyl Ester] — 5.7-fold lower, 67.5 nM
- COC(=O)CC[C@H](NC(=O)COc1cccc2c1c1c(C(N)=O)cccc1n2Cc1ccccc1)C(=O)OC [Compound 3e, N-[[[5-Carbamoyl-9-(phenylmethyl)carbazol-4-yl]oxy]acetyl]-L-glutamic Acid Dimethyl Ester] — 1.9-fold higher, 709 nM
- COC(=O)[C@H](C)NC(=O)COc1cccc2c1c1c(C(N)=O)cccc1n2Cc1ccccc1 [Compound 3b, N-[[[5-Carbamoyl-9-(phenylmethyl)carbazol-4-yl]oxy]acetyl]-L-alanine Methyl Ester] — 1.9-fold lower, 205 nM
- COC(=O)[C@H](Cc1ccccc1)NC(=O)COc1cccc2c1c1c(C(N)=O)cccc1n2Cc1ccccc1 [Compound 3g, N-[[[5-Carbamoyl-9-(phenylmethyl)carbazol-4-yl]oxy]acetyl]-L-phenylalanine Methyl Ester] — 22-fold higher, 8600 nM
- COC(=O)C[C@H](NC(=O)COc1cccc2c1c1c(C(N)=O)cccc1n2Cc1ccccc1)C(=O)OC [Compound 3d, N-[[[5-Carbamoyl-9-(phenylmethyl)carbazol-4-yl]oxy]acetyl]-L-aspartic Acid Dimethyl Ester] — within 1.5-fold, 513 nM

same assay, conditions: compounds of formula 4; diheptanoyl thio-PC substrate, pH 7.5, absorbance at 405 nm

Point of comparison: `CC(C)C[C@H](NC(=O)COc1cccc2c1c1c(C(N)=O)cccc1n2Cc1ccccc1)C(=O)O` [Compound 4c, N-[[[5-Carbamoyl-9-(phenylmethyl)carbazol-4-yl]oxy]acetyl]-L-leucine], IC50 16.1 nM. Against it:
- CSCC[C@H](NC(=O)COc1cccc2c1c1c(C(N)=O)cccc1n2Cc1ccccc1)C(=O)O [Compound 4f, N-[[[5-Carbamoyl-9-(phenylmethyl)carbazol-4-yl]oxy]acetyl]-L-methionine] — 6.4-fold higher, 103 nM
- NC(=O)c1cccc2c1c1c(OCC(=O)N[C@@H](CC(=O)O)C(=O)O)cccc1n2Cc1ccccc1 [Compound 4d, N-[[[5-Carbamoyl-9-(phenylmethyl)carbazol-4-yl]oxy]acetyl]-L-aspartic Acid] — 6.2-fold higher, 99.2 nM
- NC(=O)c1cccc2c1c1c(OCC(=O)NCC(=O)O)cccc1n2Cc1ccccc1 [Compound 4a, N-[[[5-Carbamoyl-9-(phenylmethyl)carbazol-4-yl]oxy]acetyl]glycine] — 7.3-fold higher, 118 nM
- NC(=O)c1cccc2c1c1c(OCC(=O)N[C@@H](Cc3ccccc3)C(=O)O)cccc1n2Cc1ccccc1 [Compound 4g, N-[[[5-Carbamoyl-9-(phenylmethyl)carbazol-4-yl]oxy]acetyl]-L-phenylalanine] — 20-fold higher, 324 nM
- NC(=O)c1cccc2c1c1c(OCC(=O)N[C@@H](CCC(=O)O)C(=O)O)cccc1n2Cc1ccccc1 [Compound 4e, N-[[[5-Carbamoyl-9-(phenylmethyl)carbazol-4-yl]oxy]acetyl]-L-glutamic Acid] — 3.8-fold higher, 61.2 nM
